Data on 2 compounds can be found in ChEMBL document CHEMBL1159243, “Chemical and biological investigation of the polar constituents of the starfish Luidia clathrata, collected in the Gulf of Mexico” (1995).

One test has as its system Staphylococcus aureus. As to the kind of experiment: Antimicrobial activity against Staphylococcus aureus at 50 ug/disk after 24 to 72 hrs. Type of test: functional. The note with it: read-out: IZ.
For a further test, the system named is Bacillus subtilis. In words: Antimicrobial activity against Bacillus subtilis at 50 ug/disk after 24 to 72 hrs. Type of test: functional. The note with it: read-out: IZ.

Take `CC(C)[C@@H](O)CC[C@@H](C)[C@H]1C[C@H](OS(=O)(=O)O)[C@H]2[C@@H]3C[C@@H](O)[C@@]4(O)C[C@@H](O)CC[C@]4(C)[C@H]3CC[C@@]21C`: the zone of inhibition at 50 µg/disc in the test with Staphylococcus aureus was found to be 1 mm; with Bacillus subtilis it was 3 mm.

`C[C@H](CO)CCC[C@@H](C)[C@H]1[C@@H](O)[C@H](O)[C@H]2[C@@H]3[C@H](O)[C@@H](O)[C@H]4C[C@@H](O)CC[C@]4(C)[C@H]3CC[C@]12C`: the zone of inhibition at 50 µg/disc in the test with Staphylococcus aureus is 1 mm; in the test on Bacillus subtilis it was 2 mm.
